The source of these data is US10975068B2, “6-aminopyridin-3-yl thiazoles as modulators of RORγT” (Janssen Pharmaceutica NV, priority 2016, dated 2021).

One assay concerns the target full-length human RORγt (Homo sapiens (Human), UniProt P51449). Nature of the assay: RORγt (full-length human) reporter assay, Conditions B or C. The class given is cell-based. To be noted: for RORγt (FL) Reporter Assay B or C, % inhibition (value marked *): marked *: footnote not given; for inhibition at 1 µM: at 1 μM compound concentration; for inhibition at 3 µM: at 3 μM compound concentration. In outline: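 HEK293T cells transiently co-transfected with GAL4-DBD–full-length human RORγt (nt 142-1635, NM_001001523.1) plus GAL4-firefly and CMV-Renilla luciferase reporters; compounds added 4-6 h post-transfection for 16-20 h in 1.3% FBS, 0.1% DMSO. Firefly signal normalized to DMSO and saturating reference compound, then to Renilla; IC50 from concentration plots.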

For assay [1], the target named is human RORγt ligand binding domain (RORγt LBD) (Homo sapiens (Human), UniProt P51449). Nature of the assay: RORγt ThermoFluor® assay (thermal shift binding). To be noted: read-out: ThermoFluor® Assay, Kd. An outline of the steps: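 His-tagged human RORγt LBD (0.065 mg/mL) with 60 μM 1,8-ANS in 100 mM Hepes pH 7.0, 10 mM NaCl, 2.5 mM GSH, 0.002% Tween-20 was heated at 1 °C/min.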
On the technique in general: In DSF a fluorescence change marks the thermal transition of the protein.

[2] abbreviates: Conditions B or C, read-out: RORγt (FL) Reporter Assay B or C, IC50.
Setting [3] is: read-out: RORγt (FL) Reporter Assay B or C, % inhibition.
[4] abbreviates: read-out: RORγt (FL) Reporter Assay B or C, IC50.

Where two headings read alike, the source gives them in different places.

For orientation: IC50 means the concentration needed to halve the response being measured. What is called Kd is the constant that tells how readily two partners part at equilibrium. The term inhibition denotes the relative decrease from the control value, in per cent.

Sequence of full-length human RORγt (P51449 other isoform, or with tags, fused parts or gaps): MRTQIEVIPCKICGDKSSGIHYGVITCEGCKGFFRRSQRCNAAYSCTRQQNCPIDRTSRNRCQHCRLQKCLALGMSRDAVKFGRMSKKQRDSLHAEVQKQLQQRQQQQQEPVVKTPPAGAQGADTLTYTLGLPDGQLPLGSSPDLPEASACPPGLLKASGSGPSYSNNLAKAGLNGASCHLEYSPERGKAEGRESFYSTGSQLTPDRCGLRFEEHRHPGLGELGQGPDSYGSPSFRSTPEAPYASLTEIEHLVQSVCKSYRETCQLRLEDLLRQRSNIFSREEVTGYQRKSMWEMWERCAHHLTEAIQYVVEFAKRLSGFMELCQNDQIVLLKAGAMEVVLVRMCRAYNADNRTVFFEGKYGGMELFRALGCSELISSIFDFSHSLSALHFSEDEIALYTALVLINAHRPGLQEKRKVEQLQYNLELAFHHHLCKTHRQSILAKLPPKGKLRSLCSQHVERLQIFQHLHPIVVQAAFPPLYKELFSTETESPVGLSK
Sequence of human RORγt ligand binding domain (RORγt LBD) (P51449 other isoform, or with tags, fused parts or gaps): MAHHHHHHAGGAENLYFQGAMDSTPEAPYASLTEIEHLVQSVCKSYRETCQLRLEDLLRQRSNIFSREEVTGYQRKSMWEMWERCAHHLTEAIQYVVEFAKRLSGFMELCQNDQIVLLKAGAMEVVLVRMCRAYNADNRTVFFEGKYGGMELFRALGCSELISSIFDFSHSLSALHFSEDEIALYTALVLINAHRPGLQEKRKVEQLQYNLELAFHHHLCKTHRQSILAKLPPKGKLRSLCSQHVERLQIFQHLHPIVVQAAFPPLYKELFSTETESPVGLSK

Consider `CC[C@H](Nc1cc(C(F)F)c(-c2sc(C(=O)N[C@H]3C[C@H](O)C3)nc2C(=O)N2CCC[C@@H]2C)cn1)C(F)(F)F` [Example 233, 5-[4-(Difluoromethyl)-6-[[(1S)-1-(trifluoromethyl)propyl]amino]-3-pyridyl]-N-((1r,3S)-3-hydroxycyclobutyl)-4-[(2S)-2-methylpyrrolidine-1-carbonyl]thiazole-2-carboxamide], for which the “RORγt (FL) Reporter Assay B or C, % inhibition (value marked *)” value (from here on “RORγt … % inhibition (value marked *)”) on full-length human RORγt (Conditions B or C) is 124* %. Besides, the 50% inhibitory concentration (IC50) on full-length human RORγt (setting [2]) amounted to 0.022 µM. The Kd in assay [1] stood at 10 nM.

Consider `C[C@H](Nc1cc(C(F)F)c(-c2sc(C(=O)N[C@@H]3COC[C@@H]3O)nc2C(=O)N2CCC[C@@H]2C)cn1)C(F)(F)F` (single isomer, unassigned) [Example 159, 5-(4-(Difluoromethyl)-6-(((S)-1,1,1-trifluoropropan-2-yl)amino)pyridin-3-yl)-N-((3R*,4R*)-4-hydroxytetrahydrofuran-3-yl)-4-((S)-2-methylpyrrolidine-1-carbonyl)thiazole-2-carboxamide], for which, at full-length human RORγt (Conditions B or C, marked ***: footnote not given), the “RORγt (FL) Reporter Assay B or C, % inhibition (value marked ***)” value is 93*** %. The IC50 at full-length human RORγt (setting [2]) amounted to 0.032 µM. The Kd in assay [1] stood at 22 nM.

Regarding `C[C@H](Nc1cc(C(F)F)c(-c2sc(C(=O)N[C@H]3COC[C@@H]3O)nc2C(=O)N2CC(F)(F)C[C@@H]2C)cn1)C(F)(F)F` [Example 190], the “RORγt … % inhibition (value marked *)” value on full-length human RORγt (Conditions B or C) is reported as 104* %. The IC50 at full-length human RORγt (setting [2]) came to 0.034 µM. In assay [1], the Kd was determined as 3.8 nM.

Regarding `C[C@H]1CC(F)(F)CN1C(=O)c1nc(C(=O)NCC(C)(C)O)sc1-c1cnc(NCC2(C(F)(F)F)CCC2)cc1C(F)(F)F` [Example 118, (S)-4-(4,4-Difluoro-2-methylpyrrolidine-1-carbonyl)-N-(2-hydroxy-2-methylpropyl)-5-(4-(trifluoromethyl)-6-(((1-(trifluoromethyl)cyclobutyl)methyl)amino)pyridin-3-yl)thiazole-2-carboxamide], the “RORγt (FL) Reporter Assay B or C, % inhibition (value marked ****)” value at full-length human RORγt (Conditions B or C, marked ****: footnote not shown) was 109**** %. Further, on full-length human RORγt (setting [2]), the IC50 was 0.0071 µM. The Kd in assay [1] amounted to 0.43 nM.

As to `C[C@H](Nc1cc(C(F)F)c(-c2sc(C(=O)NC3CCS(=O)(=O)CC3)nc2C(=O)N2CC(F)(F)C[C@@H]2C)cn1)C(F)(F)F` [Example 421, 4-[(2S)-4,4-Difluoro-2-methyl-pyrrolidine-1-carbonyl]-5-[4-(difluoromethyl)-6-[[(1S)-2,2,2-trifluoro-1-methyl-ethyl]amino]-3-pyridyl]-N-(1,1-dioxothian-4-yl)thiazole-2-carboxamide], the inhibition at 1 µM at full-length human RORγt (setting [3]) worked out at 98%. In addition, the IC50 at full-length human RORγt (setting [4]) worked out at 0.064 µM. Moreover, the Kd in assay [1] was 1 nM.

For `C[C@H]1CCCN1C(=O)c1nc(C(=O)NCC2(O)CCC2)sc1-c1cnc(NC(C)(C)C)cc1C(F)F` [Example 133, (S)-5-(6-(tert-Butylamino)-4-(difluoromethyl)pyridin-3-yl)-N-((1-hydroxycyclobutyl)methyl)-4-(2-methylpyrrolidine-1-carbonyl)thiazole-2-carboxamide], the “RORγt … % inhibition (value marked *)” value at full-length human RORγt (Conditions B or C) is 105* %. For the same molecule, on full-length human RORγt (setting [2]), the IC50 came out at 0.028 µM. Moreover, the Kd in assay [1] was 4.5 nM.

As to `C[C@H](Nc1cc(C(F)F)c(-c2sc(C(=O)N[C@H]3C[C@H](O)C3)nc2C(=O)N2CC(F)(F)C[C@@H]2C)cn1)C(F)(F)F` [Example 191, 4-((S)-4,4-Difluoro-2-methylpyrrolidine-1-carbonyl)-5-(4-(difluoromethyl)-6-(((S)-1,1,1-trifluoropropan-2-yl)amino)pyridine-3-yl)-N-((1r,3S)-3-hydroxycyclobutyl)thiazole-2-carboxamide], the “RORγt … % inhibition (value marked *)” value at full-length human RORγt (Conditions B or C) is on record as 98* %. Further, on full-length human RORγt (setting [2]), the IC50 is 0.032 µM. Further, the Kd in assay [1] was determined as 18 nM.

For the molecule `CC(C)[C@@H](C)NC(=O)c1nc(C(=O)N2CCC[C@@H]2C)c(-c2cnc(NC(C)(C)C)cc2C(F)(F)F)s1` [Example 341, 5-[6-(tert-Butylamino)-4-(trifluoromethyl)-3-pyridyl]-N-[(1R)-1,2-dimethylpropyl]-4-[(2S)-2-methylpyrrolidine-1-carbonyl]thiazole-2-carboxamide], the inhibition at 3 µM at full-length human RORγt (setting [3]) amounted to 107%. Also, the IC50 on full-length human RORγt (setting [4]) was 0.0057 µM. The Kd in assay [1] came to 4 nM.

For `C[C@H]1CC(F)(F)CN1C(=O)c1nc(C(=O)N[C@H]2C[C@H](O)C2)sc1-c1cnc(NC(C)(C)C)cc1C(F)F` [Example 429, 5-(6-(tert-Butylamino)-4-(difluoromethyl)pyridin-3-yl)-4-((S)-4,4-difluoro-2-methylpyrrolidine-1-carbonyl)-N-((1r,3S)-3-hydroxycyclobutyl)thiazole-2-carboxamide], the inhibition at 0.33 µM on full-length human RORγt (at 0.33 μM compound concentration, read-out: RORγt (FL) Reporter Assay B or C, % inhibition) came to 113%. For the same molecule, the IC50 at full-length human RORγt (setting [4]) is 0.0095 µM. Moreover, in assay [1], the Kd came to 2.5 nM.

In the case of `C[C@H]1CCCN1C(=O)c1nc(C(=O)N[C@H]2C[C@H](O)C2)sc1-c1cnc(NC2(C)CCC2)cc1C(F)F` [Example 323, 5-(4-(Difluoromethyl)-6-((1-methylcyclobutyl)amino)pyridin-3-yl)-N-((1r,3S)-3-hydroxycyclobutyl)-4-((S)-2-methylpyrrolidine-1-carbonyl)thiazole-2-carboxamide], the inhibition at 1 µM on full-length human RORγt (setting [3]) stood at 97%. Moreover, on full-length human RORγt (setting [4]), the IC50 amounted to 0.15 µM. For the same molecule, the Kd in assay [1] turned out to be 8.2 nM.

Take `CC[C@H](Nc1cc(C(F)F)c(-c2sc(C(=O)NC3CCOCC3)nc2C(=O)N2CC(F)(F)C[C@@H]2C)cn1)C(F)(F)F` [Example 422, 4-[(2S)-4,4-Difluoro-2-methyl-pyrrolidine-1-carbonyl]-5-[4-(difluoromethyl)-6-[[(1S)-1-(trifluoromethyl)propyl]amino]-3-pyridyl]-N-tetrahydropyran-4-yl-thiazole-2-carboxamide]: the inhibition at 3 µM at full-length human RORγt (setting [3]) amounted to 101%. For the same molecule, the IC50 at full-length human RORγt (setting [4]) is 0.023 µM. Further, the Kd in assay [1] was found to be 0.62 nM.

Regarding `CC[C@H](Nc1cc(C(F)F)c(-c2sc(C(=O)N[C@H]3CC[C@@H]3O)nc2C(=O)N2CCC[C@@H]2C)cn1)C(F)(F)F` (relative stereo) [Example 377, 5-(4-(Difluoromethyl)-6-(((S)-1,1,1-trifluorobutan-2-yl)amino)pyridin-3-yl)-N-((1S*,2S*)-2-hydroxycyclobutyl)-4-((S)-2-methylpyrrolidine-1-carbonyl)thiazole-2-carboxamide], the inhibition at 3 µM at full-length human RORγt (setting [3]) was 91%. Besides, the IC50 at full-length human RORγt (setting [4]) worked out at 0.032 µM. Further, the Kd in assay [1] amounted to 3.4 nM.

Regarding `C[C@H]1CCCN1C(=O)c1nc(C(=O)NC2(CO)COC2)sc1-c1cnc(NC(C)(C)C)cc1C(F)(F)F` [Example 261, 5-[6-(tert-Butylamino)-4-(trifluoromethyl)-3-pyridyl]-N-[3-(hydroxymethyl)oxetan-3-yl]-4-[(2S)-2-methylpyrrolidine-1-carbonyl]thiazole-2-carboxamide], the inhibition at 3 µM on full-length human RORγt (setting [3]) was found to be 104%. On full-length human RORγt (setting [4]), the IC50 was 0.023 µM. For the same molecule, in assay [1], the Kd worked out at 2.6 nM.

In the case of `CC[C@H](Nc1cc(C(F)F)c(-c2sc(C(=O)NCC(C)(C)O)nc2C(=O)N2C3CCC2CC3)cn1)C(F)(F)F` [Example 89, 4-((1s,4s)-7-Azabicyclo[2.2.1]heptane-7-carbonyl)-5-(4-(difluoromethyl)-6-(((S)-1,1,1-trifluorobutan-2-yl)amino)pyridin-3-yl)-N-(2-hydroxy-2-methylpropyl)thiazole-2-carboxamide], the “RORγt … % inhibition (value marked *)” value on full-length human RORγt (Conditions B or C) is 100* %. Further, on full-length human RORγt (RORγt (FL) Reporter Assay B or C, IC50 (μM), Conditions B or C), the IC50 worked out at 0.024 µM. Also, the Kd in assay [1] is 5.2 nM.

In the case of `C[C@H]1CCCCN1C(=O)c1nc(C(=O)NCC(C)(C)O)sc1-c1cnc(NC2(C)CCC2)cc1C(F)(F)F` [Example 81, (S)—N-(2-Hydroxy-2-methylpropyl)-5-(6-((1-methylcyclobutyl)amino)-4-(trifluoromethyl)pyridin-3-yl)-4-(2-methylpiperidine-1-carbonyl)thiazole-2-carboxamide], at full-length human RORγt (Conditions B or C), the “RORγt … % inhibition (value marked *)” value is 105* %. Moreover, the IC50 on full-length human RORγt (setting [2]) was 0.0093 µM. Moreover, in assay [1], the Kd worked out at 0.17 nM.

Take `CC[C@H](Nc1cc(C(F)F)c(-c2sc(C(=O)N3CCOCC3)nc2C(=O)N2CCC[C@@H]2C)cn1)C(F)(F)F` [Example 395, [5-[4-(Difluoromethyl)-6-[[(1S)-1-(trifluoromethyl)propyl]amino]-3-pyridyl]-2-(morpholine-4-carbonyl)thiazol-4-yl]-[(2S)-2-methylpyrrolidin-1-yl]methanone]: the inhibition at 3 µM at full-length human RORγt (setting [3]) came to 103%. Also, the IC50 on full-length human RORγt (setting [4]) stood at 0.034 µM. For the same molecule, the Kd in assay [1] is 40 nM.

On to `CC[C@@H](Nc1cc(C(F)F)c(-c2sc(C(=O)NCC(C)(C)O)nc2C(=O)N2C3CCC2CC3)cn1)C1CC1` (stereo in doubt) [Example 164], for which the “RORγt … % inhibition (value marked *)” value on full-length human RORγt (Conditions B or C) is recorded as 105* %. For the same molecule, the IC50 at full-length human RORγt (setting [2]) was 0.023 µM. The Kd in assay [1] was 4.6 nM.

As to `C[C@H]1CC(F)(F)CN1C(=O)c1nc(C(=O)N[C@H]2C[C@H](O)C2)sc1-c1cnc(NC2(C)CCC2)cc1C(F)F` [Example 327, 4-((S)-4,4-Difluoro-2-methylpyrrolidine-1-carbonyl)-5-(4-(difluoromethyl)-6-((1-methylcyclobutyl)amino)pyridin-3-yl)-N-((1r,3S)-3-hydroxycyclobutyl)thiazole-2-carboxamide], the inhibition at 3 µM at full-length human RORγt (setting [3]) turned out to be 93%. The IC50 on full-length human RORγt (setting [4]) stood at 0.011 µM. For the same molecule, the Kd in assay [1] came to 2 nM.
